pIC50: −log10 of the molar value. Some results are limits rather than exact numbers.

The target in one experiment is T1, PI3K-delta (Homo sapiens, UniProt O00329).
T1 construct: purchased Upstate; Millipore 14-604
Briefly: HTRF PI3K biochemical assay, delta isoform. The note with it: form screened (neutral or TFA salt) given, read-out: PI3Kdelta IC50.

In another experiment the target is T2, PI3K-alpha (Homo sapiens, UniProt P42336).
T2 construct: purchased Upstate; Millipore 14-602
Nature of the experiment: HTRF PI3K biochemical assay, alpha isoform. The note with it: ratio PI3K-alpha IC50 value / PI3K-delta IC50 value.

T1 sequence (O00329 whole entry): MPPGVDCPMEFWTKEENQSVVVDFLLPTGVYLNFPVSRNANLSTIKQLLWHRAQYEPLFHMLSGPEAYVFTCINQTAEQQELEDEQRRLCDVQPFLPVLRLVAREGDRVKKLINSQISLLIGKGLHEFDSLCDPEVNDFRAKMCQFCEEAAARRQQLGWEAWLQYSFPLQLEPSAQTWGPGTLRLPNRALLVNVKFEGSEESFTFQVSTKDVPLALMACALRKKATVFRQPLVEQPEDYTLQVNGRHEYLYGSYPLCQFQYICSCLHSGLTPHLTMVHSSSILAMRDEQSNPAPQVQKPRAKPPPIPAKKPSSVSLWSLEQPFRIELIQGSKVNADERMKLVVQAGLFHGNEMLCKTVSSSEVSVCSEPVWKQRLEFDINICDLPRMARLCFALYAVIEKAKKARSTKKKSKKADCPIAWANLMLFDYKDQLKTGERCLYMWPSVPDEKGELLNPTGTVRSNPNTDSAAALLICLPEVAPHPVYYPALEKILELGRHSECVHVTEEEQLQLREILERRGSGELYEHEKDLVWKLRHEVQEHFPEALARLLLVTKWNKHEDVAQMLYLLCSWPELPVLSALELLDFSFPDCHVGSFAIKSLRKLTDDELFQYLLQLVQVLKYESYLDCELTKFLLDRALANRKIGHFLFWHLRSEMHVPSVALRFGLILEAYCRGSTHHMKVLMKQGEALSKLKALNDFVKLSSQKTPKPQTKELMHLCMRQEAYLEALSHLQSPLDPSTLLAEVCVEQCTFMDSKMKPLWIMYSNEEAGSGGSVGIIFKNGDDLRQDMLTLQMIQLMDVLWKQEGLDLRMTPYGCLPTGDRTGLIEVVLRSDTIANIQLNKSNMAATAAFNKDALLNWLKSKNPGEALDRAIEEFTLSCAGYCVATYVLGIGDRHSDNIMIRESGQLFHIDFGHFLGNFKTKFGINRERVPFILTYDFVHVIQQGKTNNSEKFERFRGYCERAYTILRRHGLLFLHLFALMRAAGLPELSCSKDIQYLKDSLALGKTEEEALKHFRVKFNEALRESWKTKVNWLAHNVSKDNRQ
T1 sequence (P27986 whole entry partner): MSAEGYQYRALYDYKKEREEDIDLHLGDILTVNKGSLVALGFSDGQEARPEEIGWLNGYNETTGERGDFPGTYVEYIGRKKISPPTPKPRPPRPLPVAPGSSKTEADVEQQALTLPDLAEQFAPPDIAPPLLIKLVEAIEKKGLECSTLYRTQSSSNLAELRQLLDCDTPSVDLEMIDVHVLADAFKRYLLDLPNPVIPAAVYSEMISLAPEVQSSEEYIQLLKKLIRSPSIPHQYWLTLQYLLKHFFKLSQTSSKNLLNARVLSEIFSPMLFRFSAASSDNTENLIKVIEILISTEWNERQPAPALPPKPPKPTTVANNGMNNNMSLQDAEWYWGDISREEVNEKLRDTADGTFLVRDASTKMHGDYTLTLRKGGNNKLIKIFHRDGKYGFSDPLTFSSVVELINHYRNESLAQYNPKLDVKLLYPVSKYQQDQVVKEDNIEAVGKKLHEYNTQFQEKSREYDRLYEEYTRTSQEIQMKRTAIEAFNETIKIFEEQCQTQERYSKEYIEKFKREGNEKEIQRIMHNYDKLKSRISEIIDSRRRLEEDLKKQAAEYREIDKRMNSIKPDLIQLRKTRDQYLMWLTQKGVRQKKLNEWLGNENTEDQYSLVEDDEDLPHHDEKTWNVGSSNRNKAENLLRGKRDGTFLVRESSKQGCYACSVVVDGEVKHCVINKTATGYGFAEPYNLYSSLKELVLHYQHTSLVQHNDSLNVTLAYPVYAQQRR
T2 sequence (P42336 whole entry): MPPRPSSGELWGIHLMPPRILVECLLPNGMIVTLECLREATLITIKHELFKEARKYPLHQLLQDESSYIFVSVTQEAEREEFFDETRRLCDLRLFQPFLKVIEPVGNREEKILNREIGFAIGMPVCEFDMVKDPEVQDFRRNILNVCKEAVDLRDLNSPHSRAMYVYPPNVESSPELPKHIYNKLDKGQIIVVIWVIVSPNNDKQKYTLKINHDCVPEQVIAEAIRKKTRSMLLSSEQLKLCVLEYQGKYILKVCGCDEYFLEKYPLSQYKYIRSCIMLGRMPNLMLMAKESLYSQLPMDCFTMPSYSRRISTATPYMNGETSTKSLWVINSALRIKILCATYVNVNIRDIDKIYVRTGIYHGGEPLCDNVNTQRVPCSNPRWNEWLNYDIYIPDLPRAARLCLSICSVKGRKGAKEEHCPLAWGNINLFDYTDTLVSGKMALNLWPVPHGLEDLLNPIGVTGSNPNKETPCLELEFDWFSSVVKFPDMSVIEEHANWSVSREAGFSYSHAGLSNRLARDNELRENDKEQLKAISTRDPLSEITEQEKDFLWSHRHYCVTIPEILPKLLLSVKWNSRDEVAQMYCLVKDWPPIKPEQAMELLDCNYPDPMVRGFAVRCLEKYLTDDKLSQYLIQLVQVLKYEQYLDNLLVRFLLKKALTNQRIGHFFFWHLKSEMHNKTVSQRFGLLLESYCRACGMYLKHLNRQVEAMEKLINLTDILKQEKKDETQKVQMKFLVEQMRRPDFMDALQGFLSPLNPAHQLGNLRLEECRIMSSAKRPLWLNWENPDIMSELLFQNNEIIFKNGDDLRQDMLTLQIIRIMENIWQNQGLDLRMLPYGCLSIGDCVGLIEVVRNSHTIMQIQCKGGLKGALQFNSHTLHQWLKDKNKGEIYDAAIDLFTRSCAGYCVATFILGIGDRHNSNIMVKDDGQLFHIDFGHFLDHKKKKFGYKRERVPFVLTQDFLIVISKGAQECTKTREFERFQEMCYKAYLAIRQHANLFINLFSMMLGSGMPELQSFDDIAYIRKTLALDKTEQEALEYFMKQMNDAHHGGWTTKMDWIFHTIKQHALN
T2 sequence (P27986 whole entry partner): as the sequence (P27986 whole entry partner) above
Description for PI3K-delta: HTRF PI3K Biochemical Assay to Measure Intrinsic Potency of Compound Inhibitors
This assay was developed and further optimized from a kit produced by Upstate (Millipore catalog #33-047) and has been configured for HTS and SAR screening. Briefly, this procedure exploits the exquisite specificity and high affinity binding of enzyme reaction substrate phosphatidyl(3,4,5)triphosphate (PIP3) to the GRP1 pleckstrin homology (PH) domain to generate the signal. In the absence of PIP3, an HTRF (Homogeneous Time-Resolved Fluorescence energy transfer) complex is formed consisting of europium (Eu)-labeled anti-GST, GSTtagged GRP1-PH domain, biotin-PIP3 and streptavidin conjugated APC. The native PIP3 produced by PI3-Kinase activity disrupts in a competitive manner the biotin-PIP3 from the PH domain, resulting in the loss of energy transfer (HTRF complex) and a decrease in the signal. The format of this assay is the same for all 4 isoforms of PI3K; the differences lie in the concentration of enzyme used to achieve robust assay window. The alpha, beta, and delta assays are run at 0.5, 1, and 0.3 nM enzymes and the gamma assay is run at 5 nM enzyme. The ATP concentration is 100 uM in the alpha, beta, and delta assays and 50 uM ATP in the gamma assay. All reactions are run at 5 uM PIP2.
Compounds are serially diluted (3-fold in 100% DMSO) across a 384-well polypropylene source plated from column 3 to column 12 and column 13 to column 22, to yield 10 concentration dose response for each test compound. Columns 1, 2, 23 and 24 contain either only DMSO or pharmacological known control inhibitor.
The PI3-Kinase biochemical assay was optimized using the HTRF kit provided by Upstate (Millipore). The assay kit contains six reagents: 1) 4× Reaction Buffer; 2) native PIP2 (substrate); 3) Stop (EDTA); 4) Detection Mix A (Streptavidin-APC); 5) Detection Mix B (Eu-labeled Anti-GST plus GST-tagged PH-domain); 6) Detection Mix C.
PI3Kinase Reaction Buffer is prepared by dilution the stock 1:4 with de-ionized water. […] Enzyme addition and compound pre-incubation are initiated by the addition of 1.25 ul of PI3K (at twice its final concentration) in the 1× reaction buffer to all wells using a BioRaptor. Plates are incubated at room temperature for 15 minutes. Reactions are initiated by addition of 1.25 ul of 2× substrate solution (PIP2 and ATP in 1× reaction buffer) using BioRaptor. Plates are incubated in humidified chamber at room temperature for one hour. Reactions are quenched by addition of 0.625 uL of stop solution to all wells using the BioRaptor. The quenched reactions are then processed to detect product formation by adding 0.625 uL of Detection Solution to all wells using the BioRaptor (Detection mix C, Detection Mix A, and Detection Mix B combined together in an 18:1:1 ratio prepared 2 hours prior to use).
The loss of the HTRF signal is due to the displacement of biotinylated-PIP3 from the PH domain by the PI3K-dependent conversion of PIP2 to PIP3. This loss of signal is nonlinear with respect to both increasing product and time. This non-linear detection will impact accuracy of IC50 calculations; therefore, there is a need for a correction factor to obtain more accurate IC50 values. This correction is derived from a PIP3 standard curve run in a separate assay plate. All data were calculated using the ratio of acceptor (APC) to donor (Europium) fluorescence in each well of the assay plate. […] An IC50 was then calculated fitting the % inhibition data to the equation: % inhibition=min+(Max−min)/1+([inhibitor]/IC50)^n) where min is the % inhibition with inhibitor, max is the signal in DMSO control, and n is the Hill slope.

As to `CCC(C)OC(=O)N1CC[C@H](Nc2ncnc3c2nc(-c2cnc(C)nc2)n3CC)C1` (mixture of isomers) [Compound 13-9, (S and R)-1-methylpropyl (3S)-3-{[9-ethyl-8-(2-methylpyrimidin-5-yl)-9H-purin-6-yl]amino}pyrrolidine-1-carboxylate], at PI3K-delta, the pIC50 is 8.46. Also, the “Selectivity versus PI3Kalpha” value at PI3K-alpha is over 10.
Taken in the same sequence, the figures for `CCn1c(-c2cnc(C)nc2)nc2c(N[C@H]3CCN(C(=O)C4CC4(F)F)C3)ncnc21` (mixture of isomers) [Compound 2-55, N-{(3S)-1-[((R and S)-2,2-difluorocyclopropyl)carbonyl]pyrrolidin-3-yl}-9-ethyl-8-(2-methylpyrimidin-5-yl)-9H-purin-6-amine] were 8.82 and over 10.
Taken in the same sequence, the figures for `CCC(=O)N1CC[C@H](N(C)c2ncnc3c2nc(-c2cnc(C(C)(C)C)s2)n3CC)C1` [Compound 2-11, (S)-1-(3-((8-(2-(tert-butyl)thiazol-5-yl)-9-ethyl-9H-purin-6-yl)(methyl)amino)pyrrolidin-1-yl)propan-1-one] were 8.44 and over 10.
Taken in the same sequence, the figures for `CCn1c(-c2cnc(C)nc2)nc2c(N[C@H]3CCN(C(=O)C4(C#N)CCCC4)C3)ncnc21` [Compound 2-62, 1-{[(3S)-3-{[9-ethyl-8-(2-methylpyrimidin-5-yl)-9H-purin-6-yl]amino}pyrrolidin-1-yl]carbonyl}cyclopentanecarbo-nitrile] were 8.22 and over 10.
Regarding `CCn1c(-c2cnc(OC)c(C)c2)nc2c(N[C@H]3CCN(C(=O)OC(C)(C)C)C3)ncnc21` [Compound 1-5, (S)-tert-butyl 3-((9-ethyl-8-(6-methoxy-5-methylpyridin-3-yl)-9H-purin-6-yl)amino)pyrrolidine-1-carboxylate], on PI3K-delta, the pIC50 was over 9.00. Also, the “Selectivity versus PI3Kalpha” value on PI3K-alpha was over 10.
On the same counts, the results for `CCCn1c(-c2cnn(CC)c2C)nc2c(N[C@H]3CCN(C(=O)CC)C3)ncnc21` [Compound 9-1, 8-(1-ethyl-5-methyl-1H-pyrazol-4-yl)-N-[(3S)-1-propanoylpyrrolidin-3-yl]-9-propyl-9H-purin-6-amine] are 7.70 and over 10.
Turning to `CCn1c(-c2cnc(C)nc2)nc2c(N[C@H]3CCN(C(=O)[C@H]4C[C@@H]4C)C3)ncnc21` [Compound 2-93, 9-ethyl-N-[(3S)-1-{[(1S,2S)-2-methylcyclopropyl]carbonyl}pyrrolidin-3-yl]-8-(2-methylpyrimidin-5-yl)-9H-purin-6-amine], the pIC50 on PI3K-delta is 7.95. For the same compound, at PI3K-alpha, the “Selectivity versus PI3Kalpha” value is over 10.
On the same counts, the results for `CCCN1CC(Nc2ncnc3c2nc(-c2cnn(CC)c2C)n3C)CC1=O` (racemic) [Compound 14-1, 4(S and R)-{[8-(1-ethyl-5-methyl-1H-pyrazol-4-yl)-9-methyl-9H-purin-6-yl]amino}-1-propylpyrrolidin-2-one] are 7.96 and over 10.
On the same counts, the results for `CCn1c(-c2ccc(OC)nc2)nc2c(N[C@H]3CCN(C(=O)C4CCOCC4)C3)ncnc21` [Compound 3A-3, 9-ethyl-8-(6-methoxypyridin-3-yl)-N-[(3S)-1-(tetrahydro-2H-pyran-4-ylcarbonyl)pyrrolidin-3-yl]-9H-purin-6-amine] are over 9.00 and over 10.
On the same counts, the results for `CCn1c(-c2cnc(C)nc2)nc2c(N[C@H]3CCN(C(=O)C4NC(=O)C4(C)C)C3)ncnc21` (mixture of isomers) [Compound 2-67, (R and S)-4-{[(3S)-3-{[9-ethyl-8-(2-methylpyrimidin-5-yl)-9H-purin-6-yl]amino}pyrrolidin-1-yl]carbonyl}-3,3-dimethylazetidin-2-one] are 8.82 and over 10.
Turning to `CCn1c(C(=O)NC2COC2)nc2c(N[C@H]3CCN(C(=O)C4CC4)C3)ncnc21` [Compound 6-6, 6-{[(3S)-1-(cyclopropylcarbonyl)pyrrolidin-3-yl]amino}-9-ethyl-N-oxetan-3-yl-9H-purine-8-carboxamide], at PI3K-delta, the pIC50 is 7.21. The “Selectivity versus PI3Kalpha” value on PI3K-alpha is reported as over 10.
Taken in the same sequence, the figures for `CCn1c(-c2cnc(C)nc2)nc2c(N[C@H]3CCN(C(=O)NC4CC4)C3)ncnc21` [Compound 12-6, (3S)-N-cyclopropyl-3-{[9-ethyl-8-(2-methylpyrimidin-5-yl)-9H-purin-6-yl]amino}pyrrolidine-1-carboxamide] were 8.77 and over 10.
On the same counts, the results for `CCn1c(-c2cnc(C)nc2)nc2c(N[C@H]3CCN(C(=O)C4CN(C(C)C)C4)C3)ncnc21` [Compound 2-79, 9-ethyl-N-[(3S)-1-{[1-(1-methylethyl)azetidin-3-yl]carbonyl}pyrrolidin-3-yl]-8-(2-methylpyrimidin-5-yl)-9H-purin-6-amine] are 7.77 and over 10.
On to `CCn1c(-c2cnc(C)nc2)nc2c(N[C@H]3C[C@H](C(=O)OC)N(C(=O)OC(C)(C)C)C3)ncnc21` [Compound 1-17, 1-tert-butyl 2-methyl (2R,4S)-4-{[9-ethyl-8-(2-methylpyrimidin-5-yl)-9H-purin-6-yl]amino}pyrrolidine-1,2-dicarboxylate], for which the pIC50 at PI3K-delta was 8.06. Further, the “Selectivity versus PI3Kalpha” value on PI3K-alpha is reported as over 10.
Taken in the same sequence, the figures for `CCC(=O)N1CC[C@H](Nc2ncnc3c2nc(-c2cnc4[nH]ccc4c2)n3C)C1` [Compound 3-2, (S)-1-(3-((9-methyl-8-(1H-pyrrolo[2,3-b]pyridin-5-yl)-9H-purin-6-yl)amino)pyrrolidin-1-yl)propan-1-one] were over 9.00 and over 10.
Taken in the same sequence, the figures for `CCn1c(CC(F)(F)F)nc2c(N[C@H]3CCN(C(=O)C4CC4)C3)ncnc21` [Compound 7-7, N-[(3S)-1-(cyclopropylcarbonyl)pyrrolidin-3-yl]-9-ethyl-8-(2,2,2-trifluoroethyl)-9H-purin-6-amine] were 6.11 and over 10.
Consider `CCn1c(-c2cnc(C)nc2)nc2c(N[C@H]3CCN(c4cccc(NC)n4)C3)ncnc21` [Compound 4-8, 9-ethyl-N-{(3S)-1-[6-(methylamino)pyridin-2-yl]pyrrolidin-3-yl}-8-(2-methylpyrimidin-5-yl)-9H-purin-6-amine], for which the pIC50 on PI3K-delta is 8.64. Further, the “Selectivity versus PI3Kalpha” value at PI3K-alpha is over 10.
On the same counts, the results for `CCn1c(-c2cnc(C)nc2)nc2c(N[C@H]3CCN(C(=O)C4CC45CCCC5)C3)ncnc21` (single isomer, unassigned) [Compound 2-34, 9-ethyl-8-(2-methylpyrimidin-5-yl)-N-[(3S)-1-((R or S)-spiro[2.4]hept-1-ylcarbonyl)pyrrolidin-3-yl]-9H-purin-6-amine] are 7.96 and over 10.
Taken in the same sequence, the figures for `CCn1c(-c2cnc(C)nc2)nc2c(N[C@H]3CCN(C(=O)Cc4ccccc4)C3)ncnc21` [Compound 2-36, 9-ethyl-8-(2-methylpyrimidin-5-yl)-N-[(3S)-1-(phenylacetyl)pyrrolidin-3-yl]-9H-purin-6-amine] were 7.77 and over 10.
In the case of `CCn1c(-c2cnc(C)nc2)nc2c(N[C@H]3CC[C@H](C(=O)N4CCC4)C3)ncnc21` [Compound 5-2, N-[(1S,3S)-3-(azetidin-1-ylcarbonyl)cyclopentyl]-9-ethyl-8-(2-methylpyrimidin-5-yl)-9H-purin-6-amine], the pIC50 at PI3K-delta was 7.46. Further, the “Selectivity versus PI3Kalpha” value on PI3K-alpha is over 10.
Taken in the same sequence, the figures for `COc1ncc(-c2nc3c(N[C@H]4CCN(C(=O)OC(C)(C)C)C4)ncnc3n2C)cc1C` [Compound 1-8, (S)-tert-butyl 3-((8-(6-methoxy-5-methylpyridin-3-yl)-9-methyl-9H-purin-6-yl)amino)pyrrolidine-1-carboxylate] were 8.77 and over 10.
Taken in the same sequence, the figures for `CCn1c(-c2cnc(C)nc2)nc2c(NC3(C)CCN(C(=O)C4CC4)C3)ncnc21` (racemic) [Compound 3-18, N-[(R and S)-1-(cyclopropylcarbonyl)-3-methylpyrrolidin-3-yl]-9-ethyl-8-(2-methylpyrimidin-5-yl)-9H-purin-6-amine] were 8.59 and over 10.
In the case of `CCn1ncc(-c2nc3c(N[C@H]4CCN(C(=O)C5CC5)C4)ncnc3n2C)c1C` [Compound 2-7, N-[(3S)-1-(cyclopropylcarbonyl)pyrrolidin-3-yl]-8-(1-ethyl-5-methyl-1H-pyrazol-4-yl)-9-methyl-9H-purin-6-amine], on PI3K-delta, the pIC50 is 8.92. Moreover, the “Selectivity versus PI3Kalpha” value at PI3K-alpha is recorded as over 10.
Taken in the same sequence, the figures for `CCn1c(-c2ccc(OC)nc2)nc2c(N[C@H]3CCN(C(=O)C4CC(F)(F)C4)C3)ncnc21` [Compound 3A-8, N-{(3S)-1-[(3,3-difluorocyclobutyl)carbonyl]pyrrolidin-3-yl}-9-ethyl-8-(6-methoxypyridin-3-yl)-9H-purin-6-amine] were over 9.00 and over 10.
On the same counts, the results for `CCn1c(-c2cnc(C)nc2)nc2c(N[C@H]3CCN(c4ccc(C)cn4)C3)ncnc21` [Compound 4-3, 9-ethyl-N-[(3S)-1-(5-methylpyridin-2-yl)pyrrolidin-3-yl]-8-(2-methylpyrimidin-5-yl)-9H-purin-6-amine] are 8.43 and over 10.
On to `CCC(=O)N1CC[C@H](Nc2ncnc3c2nc(-c2ccc(S(C)(=O)=O)cc2)n3C)C1` [Compound 3-27, 9-methyl-8-[4-(methylsulfonyl)phenyl]-N-[(3S)-1-propanoylpyrrolidin-3-yl]-9H-purin-6-amine], for which, at PI3K-delta, the pIC50 is 7.41. Also, on PI3K-alpha, the “Selectivity versus PI3Kalpha” value was over 10.
On the same counts, the results for `CCn1c(-c2cnc(C)nc2)nc2c(N[C@H]3CCN(C(=O)N4CC[C@H](OC)C4)C3)ncnc21` [Compound 12-14] are 8.80 and over 10.

Values taken from US9938281B2 (Merck Sharp & Dohme Corp., priority 2012, dated 2018).
